Data on 15 compounds can be found in patent US9777020B2, “Furo-3-carboxamide derivatives and methods of use” (AbbVie Inc., priority 2014, dated 2017).

The structures appear in SMILES notation. Marks after values point to notes of the source that are not given here.

Test [1] deals with MIA-induced osteoarthritis pain. The test can be described thus: Rat model of mono-iodoacetic acid (MIA) induced osteoarthritis pain, hind limb grip force. In kind it is in vivo. As to conditions: mean percent effect. The protocol: Members of the TrkA inhibitors described above were tested and found effective in reducing osteoarthritis pain. The compounds tested were assessed in an in vivo model well known to those skilled in the art, the rat model of mono-iodoacetic acid induced osteoarthritis pain. A general review of various models of pain can be found in Joshi and Honore, Expert Opinion in Drug Discovery (2004) 1, pp. 323-334, and in the book ‘Drug Discovery and Evaluation, 2nd edition (H. Gerhard Vogel, editor; Springer-Verlag, New York, 2002; pp. 702-706). Pain behavior was assessed by measurement of hind limb grip force (GF) in adult osteoarthritic rats. Male Sprague Dawley rats, generally weighing 125-150 g, were injected in the unilateral knee join with a single intra-articular injection of sodium monoiodoacetate (MIA). Rats were tested at 21-28 days following MIA injection. A behavioral measure of activity-induced pain was carried out. Measurements of the peak hind limb grip force were conducted by recording the maximum compressive force (CFmax), in grams of force, exerted on a hind limb strain gauge setup, in a commercially available grip force measurement system (Columbus Instruments, Columbus, Ohio). During testing, each rat was gently restrained by grasping it around its rib cage and then allowed to grasp the wire mesh frame attached to the strain gauge. The experimenter then moved the animal in a rostral-to-caudal direction until the grip was broken. Each rat was sequentially tested twice at an approximately 2-3 minute interval to obtain a raw mean grip force (CFmax). This raw mean grip force data was in turn converted to a maximum hindlimb cumulative compressive force (CFmax), as the grams of force/kg of body weight, for each animal. For evaluating the compound effects, the hind limb grip force testing in the MIA-treated rats was conducted generally 30-60 minutes after dosing with the test compound. A group of age-matched naïve (not injected with MIA) animals was added as a comparator to the drug-dosed groups. The vehicle control response for each group of MIA-treated animals was defined as the 0% response (0% effect), whereas the naïve control group was defined as the normal response and as 100% effect. The % effect=(Treatment CFmax−Vehicle CFmax)[…]]×100). Higher % effect numbers indicate increased relief from the pain in the model, with 100% indicating a return to the level of response seen in normal (non-osteoarthritic) animals. All experiments evaluating drug effects in this model were conducted in a randomized blinded fashion. Male Sprague Dawley rats (generally 250-300 g body weight at the time of testing) obtained from Charles River Laboratories (Wilmington, Mass.) were used for all experiments, unless indicated otherwise. The animals were housed in Association for Assessment and Accreditation of Laboratory Animal Care (AAALAC) approved facilities at AbbVie in a temperature-regulated environment under a controlled 12-hour light-dark cycle, with lights on at 6:00 a.m. Food and water were available ad libitum at all times except during testing. All testing was done following procedures outlined in protocols approved by AbbVie Institutional Animal Care and Use Committee.

In the next test the target is TrkA (Homo sapiens (Human), UniProt P04629). The experiment in a line: TrkA kinase HTRF enzyme inhibition assay. In kind it is biochemical. As to conditions: TrkA pre-incubated with 200 μM ATP. The method in brief:
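HTRF ratio read-out of biotin-peptide (125 nM) phosphorylation, 1 h reaction after TrkA (2-10 nM) auto-activation with ATP (200 μM) for 20 min and 10 min compound pre-incubation in 50 mM HEPES pH 7.4 with MgCl2/MnCl2. Percent inhibition from initial rates in duplicate, fitted to single-site equation for IC50.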

Where [2] appears, read: 30 mg/kg p.o., tested 30-60 minutes postdosing.

TrkA, sequence (P04629 33-796): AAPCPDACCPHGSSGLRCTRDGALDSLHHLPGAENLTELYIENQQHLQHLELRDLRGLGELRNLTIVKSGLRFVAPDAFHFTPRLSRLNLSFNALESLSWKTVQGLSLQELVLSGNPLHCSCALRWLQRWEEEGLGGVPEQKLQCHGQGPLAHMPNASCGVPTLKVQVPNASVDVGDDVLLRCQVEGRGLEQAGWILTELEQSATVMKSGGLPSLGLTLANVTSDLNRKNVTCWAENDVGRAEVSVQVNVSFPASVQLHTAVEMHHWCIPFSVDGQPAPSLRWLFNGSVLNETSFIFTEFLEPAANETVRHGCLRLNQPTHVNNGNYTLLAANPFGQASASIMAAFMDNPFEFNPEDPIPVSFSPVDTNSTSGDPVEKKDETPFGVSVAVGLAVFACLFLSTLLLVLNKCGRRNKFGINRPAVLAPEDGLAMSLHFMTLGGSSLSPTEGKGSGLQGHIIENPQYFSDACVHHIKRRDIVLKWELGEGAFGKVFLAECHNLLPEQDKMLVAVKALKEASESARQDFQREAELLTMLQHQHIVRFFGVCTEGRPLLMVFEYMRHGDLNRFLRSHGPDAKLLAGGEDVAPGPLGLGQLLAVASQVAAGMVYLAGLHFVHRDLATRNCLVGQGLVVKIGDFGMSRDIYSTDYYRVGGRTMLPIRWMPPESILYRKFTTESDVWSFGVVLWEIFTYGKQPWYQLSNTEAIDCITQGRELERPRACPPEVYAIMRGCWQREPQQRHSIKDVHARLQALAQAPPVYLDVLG

On to `CCOc1nc(N2CCN(C(C)=O)CC2)ccc1NC(=O)c1coc2c1C(=O)N(CCO)CC2` [Example 9, N-[6-(4-acetylpiperazin-1-yl)-2-ethoxypyridin-3-yl]-5-(2-hydroxyethyl)-4-oxo-4,5,6,7-tetrahydrofuro[3,2-c]pyridine-3-carboxamide], for which the “% Effect (hind limb grip force, MIA model)” value (“% Effect” below) in test [1] (setting [2]) came out at 69% **. For `COc1nc(N2CCN(C(=O)N3CCOCC3)CC2)ccc1NC(=O)c1coc2c1C(=O)NC(C)(C)C2` [Example 121, N-{2-methoxy-6-[4-(morpholin-4-ylcarbonyl)piperazin-1-yl]pyridin-3-yl}-6,6-dimethyl-4-oxo-4,5,6,7-tetrahydrofuro[3,2-c]pyridine-3-carboxamide], in test [1] (setting [2]), the “% Effect” value was determined as 74% ***. On TrkA, inhibition was half-maximal at 18.1 nM (IC50). As to `COc1cc(N2CCN(C(C)=O)CC2)ccc1NC(=O)c1coc2c1C(=O)NC(C)(C)C2` [Example 126, N-[4-(4-acetylpiperazin-1-yl)-2-methoxyphenyl]-6,6-dimethyl-4-oxo-4,5,6,7-tetrahydrofuro[3,2-c]pyridine-3-carboxamide], in test [1] (100 mg/kg p.o., tested 3 hours post dose), the “% Effect” value is given as 47% **. This compound registered an IC50 against TrkA of 25 nM. Regarding `CCOc1nc(N2CCN(C(C)=O)CC2)ccc1NC(=O)c1coc2c1C(=O)NC(C)(C)C2` [Example 128, N-[6-(4-acetylpiperazin-1-yl)-2-ethoxypyridin-3-yl]-6,6-dimethyl-4-oxo-4,5,6,7-tetrahydrofuro[3,2-c]pyridine-3-carboxamide], the “% Effect” value in test [1] (30 mg/kg p.o., tested 3 hours post dose) came out at 55% ***. The same compound gave an IC50 on TrkA of 5.4 nM. For the compound `Cn1cc2cc(NC(=O)c3coc4c3C(=O)CC(C)(C)C4)ccc2n1` [Example 147, 6,6-dimethyl-N-(2-methyl-2H-indazol-5-yl)-4-oxo-4,5,6,7-tetrahydro-1-benzofuran-3-carboxamide], the “% Effect” value in test [1] (300 mg/kg p.o., tested 3 hours post dose) stood at 69% ***. The compound further displayed an IC50 on TrkA of 16.1 nM.

The compound `CCOc1nc(N2CCN(C(C)=O)CC2)ccc1NC(=O)c1coc2c1C(=O)N(CCOCCO)C(C)(C)C2` [Example 176, N-[6-(4-acetylpiperazin-1-yl)-2-ethoxypyridin-3-yl]-5-[2-(2-hydroxyethoxyl)ethyl]-6,6-dimethyl-4-oxo-4,5,6,7-tetrahydrofuro[3,2-c]pyridine-3-carboxamide] returned an IC50 at TrkA of 2.1 nM. As to `COCCOc1nc(N2CCN(C(C)=O)CC2)ccc1NC(=O)c1coc2c1C(=O)NC(C)(C)C2` [Example 177, N-[6-(4-acetylpiperazin-1-yl)-2-(2-methoxyethoxyl)pyridin-3-yl]-6,6-dimethyl-4-oxo-4,5,6,7-tetrahydrofuro[3,2-c]pyridine-3-carboxamide], in test [1] (setting [2]), the “% Effect” value was 68% ***. At TrkA, this compound came in with an IC50 of 12.2 nM.

Compound `CC(=O)N1CCN(c2ccc(NC(=O)c3coc4c3C(=O)NC(C)(C)C4)c(OCC(F)(F)F)n2)CC1` [Example 178, N-[6-(4-acetylpiperazin-1-yl)-2-(2,2,2-trifluoroethoxyl)pyridin-3-yl]-6,6-dimethyl-4-oxo-4,5,6,7-tetrahydrofuro[3,2-c]pyridine-3-carboxamide] displayed an IC50 against TrkA of 5.2 nM.

With `CC(=O)N1CCN(c2ccc(NC(=O)c3coc4c3C(=O)NC(C)(C)C4)c(OC3COC3)n2)CC1` [Example 179, N-[6-(4-acetylpiperazin-1-yl)-2-(oxetan-3-yloxy)pyridin-3-yl]-6,6-dimethyl-4-oxo-4,5,6,7-tetrahydrofuro[3,2-c]pyridine-3-carboxamide], at TrkA, the IC50 is 4.9 nM.

`CC(=O)N1CCN(c2ccc(NC(=O)c3coc4c3C(=O)NC(C)(C)C4)c(OC3CCOCC3)n2)CC1` [Example 180, N-[6-(4-acetylpiperazin-1-yl)-2-(tetrahydro-2H-pyran-4-yloxy)pyridin-3-yl]-6,6-dimethyl-4-oxo-4,5,6,7-tetrahydrofuro[3,2-c]pyridine-3-carboxamide] yielded an IC50 against TrkA of 11 nM.

Turning to `CC(=O)N1CCN(c2ccc(NC(=O)c3coc4c3C(=O)NC(C)(C)C4)c(O[C@H]3CCOC3)n2)CC1` [Example 181, N-{6-(4-acetylpiperazin-1-yl)-2-[(3S)-tetrahydrofuran-3-yloxy]pyridin-3-yl}-6,6-dimethyl-4-oxo-4,5,6,7-tetrahydrofuro[3,2-c]pyridine-3-carboxamide], at TrkA, the IC50 came out at 10.2 nM. Same read-out and setting: for `COCCOc1nc(N2CCN(C=O)CC2)ccc1NC(=O)c1coc2c1C(=O)NC(C)(C)C2` [Example 182, N-[6-(4-formylpiperazin-1-yl)-2-(2-methoxyethoxyl)pyridin-3-yl]-6,6-dimethyl-4-oxo-4,5,6,7-tetrahydrofuro[3,2-c]pyridine-3-carboxamide] the value was 17.8 nM; for `CC(=O)N1CCN(c2ccc(NC(=O)c3coc4c3C(=O)NC(C)(C)C4)c(OC3C[S+]([O-])C3)n2)CC1` (centres unmarked) [Example 183, N-{6-(4-acetylpiperazin-1-yl)-2-[(1-oxidothietan-3-yl)oxy]pyridin-3-yl}-6,6-dimethyl-4-oxo-4,5,6,7-tetrahydrofuro[3,2-c]pyridine-3-carboxamide], 4.8 nM. For `CCOc1nc(C2CCN(C(C)=O)CC2)ccc1NC(=O)c1coc2c1C(=O)NC(C)(C)C2` [Example 184, N-[6-(1-acetylpiperidin-4-yl)-2-ethoxypyridin-3-yl]-6,6-dimethyl-4-oxo-4,5,6,7-tetrahydrofuro[3,2-c]pyridine-3-carboxamide], at TrkA, the IC50 came to 3.5 nM. Still for that read-out and setting: with `CCOc1nc(N2CCN(C(C)=O)CC2)ccc1NC(=O)c1coc2c1C(=O)C(c1cc(F)ccc1F)CC2` (centres unmarked) [Example 185, N-[6-(4-acetylpiperazin-1-yl)-2-ethoxypyridin-3-yl]-5-(2,5-difluorophenyl)-4-oxo-4,5,6,7-tetrahydro-1-benzofuran-3-carboxamide] the figure was 6.6 nM.
